Experiments:
PI3K p110α = PI3K p110α (Mus musculus, UniProt P42337); assay: Cellular p110α signaling: PDGF-stimulated MEFs, pAkt Western blot; assay type: cell-based, murine
Protocol: To analyze PI3K p110α and p110β signaling, murine embryo fibroblast (MEFs) were removed from FBS and starved for 2 hours followed by stimulation with 10 ng/mL of PDGF (Cell Signaling Technologies, Danvers, Mass.) or 10 μM of LPA (Echelon, Salt Lake City, Utah) for 10 minutes at 37° C., respectively. After washing once in cold phosphate-buffered saline (PBS), the cell pellet was resuspended in 1× cell lysis buffer (Cell Signaling Technologies) supplemented with mini protease inhibitor mix (Roche, Indianapolis, Ind.), phosphate inhibitor cocktail set I and II (Calbiochem, San Diego, Calif.) for 15 minutes on ice. Whole-cell lysates were obtained by centrifugation at 16,000 g for 10 minutes at 4° C., and the soluble protein was analyzed by Western blotting for Akt and pAkt levels. To analyze PI3K p110δ and p110γ signaling, basophil activation was measured in isolated PBMC or whole blood using the Flow2 CAST kit according to the manufacture's standardized methods (Buhlman Laboratories AG, Switzerland). Briefly, p110δ was activated with anti-FCεRI and p110γ was activated with fMLP (2 μM) in the absence or presence of compounds. To monitor the basophil cell population and cellular activation, anti-CD63-FITC and anti-CCR3-PE antibodies were added to each sample. Cells were fixed and analyzed on a FC500 MPL flow cytometer (Beckman Coulter, Brea, Calif.).

[1] = test system: pAkt in B Cell Malignancies; assay: pAkt activity, B cell malignancies; assay type: cell-based; conditions: N = 7
Excerpt: Cellular viability and pAkt activity were used to determine effects of Compounds A, C, and D in solid tumor, B-cell malignancies, and T-cell malignancies.

UACC-62 = assay: pAkt pathway inhibition, UACC-62; assay type: cell-based; conditions: Homo sapiens; UACC-62, Melanoma
BT549 = assay: pAkt pathway inhibition, BT549; assay type: cell-based; conditions: Homo sapiens, BT-549; BT549, Breast
RXF-393 = assay: pAkt pathway inhibition, RXF-393; assay type: cell-based; conditions: Homo sapiens; RXF-393, Renal
LN18 = assay: pAkt pathway inhibition, LN18; assay type: cell-based; conditions: Homo sapiens, LN-18; LN18, Glioma
VCaP = assay: pAkt pathway inhibition, VCaP; assay type: cell-based; conditions: Homo sapiens, Prostate
PC3 = assay: Viability (AlamarBlue), PC3; assay type: cell-based; conditions: Homo sapiens, PC-3; PC3, Prostate
Protocol: (§1) For primary T-ALL samples, cell viability was determined using the BD Cell Viability kit (BD Biosciences) and fluorescent counting beads as previously described in Armstrong, F. et al., NOTCH is a key regulator of human T-cell acute leukemia initiating cell activity, Blood 113, 1730-1740 (2009). Cells were plated with MS5-DL1 stroma cells. After 72 hours following treatment, cells were harvested and stained with an APC-conjugated anti-human CD45 according to the manufacturer's instructions. For solid tumor cell lines, cellular viability was determined using the AlamarBlue kit (Invitrogen). About 10,000 cells in 100 μL of media containing 10% FBS were aliquoted into individual wells of a 96-well plate and treated with vehicle (DMSO) or compound in triplicate for 24 hours. Ten μL of AlamarBlue reagent was added to each well and incubated for 4 hours at 37° C. with 5% CO2. Fluorescence was measured with an excitation wavelength at 530 to 560 nm and emission wavelength at 590 nm using Spectramax M5 plate reader (Molecular Devices, Sunnyvale, Calif.).

LNCaP = assay: Viability (AlamarBlue), LNCaP; assay type: cell-based; conditions: Homo sapiens, Prostate
Protocol: as §1

T47D = assay: Viability (AlamarBlue), T47D; assay type: cell-based; conditions: Homo sapiens, Breast
Protocol: as §1

22Rv1 = assay: Viability (AlamarBlue), 22Rv1; assay type: cell-based; conditions: Homo sapiens; 22Rv1, Prostate
Protocol: as §1

Sequence of PI3K p110α (P42337 whole entry): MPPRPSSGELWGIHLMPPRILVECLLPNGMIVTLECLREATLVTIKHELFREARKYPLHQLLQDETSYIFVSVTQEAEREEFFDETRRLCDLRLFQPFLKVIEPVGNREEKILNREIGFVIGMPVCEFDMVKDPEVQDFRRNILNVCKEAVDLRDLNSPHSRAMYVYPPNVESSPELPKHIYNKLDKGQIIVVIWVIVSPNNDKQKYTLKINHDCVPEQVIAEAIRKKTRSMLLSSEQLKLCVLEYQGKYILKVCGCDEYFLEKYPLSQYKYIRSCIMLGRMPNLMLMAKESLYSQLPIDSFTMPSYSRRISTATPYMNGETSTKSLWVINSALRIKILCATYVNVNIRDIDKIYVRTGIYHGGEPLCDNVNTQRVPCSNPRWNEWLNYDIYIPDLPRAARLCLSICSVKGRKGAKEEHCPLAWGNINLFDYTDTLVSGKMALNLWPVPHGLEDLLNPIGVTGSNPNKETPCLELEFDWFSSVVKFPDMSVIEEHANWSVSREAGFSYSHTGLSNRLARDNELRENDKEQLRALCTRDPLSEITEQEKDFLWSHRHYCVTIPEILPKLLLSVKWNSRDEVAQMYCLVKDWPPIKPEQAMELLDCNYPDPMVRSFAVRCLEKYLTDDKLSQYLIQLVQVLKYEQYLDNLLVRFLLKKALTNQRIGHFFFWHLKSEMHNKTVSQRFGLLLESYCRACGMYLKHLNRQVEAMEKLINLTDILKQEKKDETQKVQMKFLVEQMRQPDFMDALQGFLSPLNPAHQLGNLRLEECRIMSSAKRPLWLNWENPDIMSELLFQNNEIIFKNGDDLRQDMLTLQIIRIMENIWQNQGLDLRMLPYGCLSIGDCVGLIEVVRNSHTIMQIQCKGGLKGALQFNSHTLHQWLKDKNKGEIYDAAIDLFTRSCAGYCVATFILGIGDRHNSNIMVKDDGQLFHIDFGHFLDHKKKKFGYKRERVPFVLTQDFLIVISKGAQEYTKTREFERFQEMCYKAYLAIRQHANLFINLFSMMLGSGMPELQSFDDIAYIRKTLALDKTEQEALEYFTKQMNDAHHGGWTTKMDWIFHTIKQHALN
Sequence of PI3K p110α (P26450 whole entry partner): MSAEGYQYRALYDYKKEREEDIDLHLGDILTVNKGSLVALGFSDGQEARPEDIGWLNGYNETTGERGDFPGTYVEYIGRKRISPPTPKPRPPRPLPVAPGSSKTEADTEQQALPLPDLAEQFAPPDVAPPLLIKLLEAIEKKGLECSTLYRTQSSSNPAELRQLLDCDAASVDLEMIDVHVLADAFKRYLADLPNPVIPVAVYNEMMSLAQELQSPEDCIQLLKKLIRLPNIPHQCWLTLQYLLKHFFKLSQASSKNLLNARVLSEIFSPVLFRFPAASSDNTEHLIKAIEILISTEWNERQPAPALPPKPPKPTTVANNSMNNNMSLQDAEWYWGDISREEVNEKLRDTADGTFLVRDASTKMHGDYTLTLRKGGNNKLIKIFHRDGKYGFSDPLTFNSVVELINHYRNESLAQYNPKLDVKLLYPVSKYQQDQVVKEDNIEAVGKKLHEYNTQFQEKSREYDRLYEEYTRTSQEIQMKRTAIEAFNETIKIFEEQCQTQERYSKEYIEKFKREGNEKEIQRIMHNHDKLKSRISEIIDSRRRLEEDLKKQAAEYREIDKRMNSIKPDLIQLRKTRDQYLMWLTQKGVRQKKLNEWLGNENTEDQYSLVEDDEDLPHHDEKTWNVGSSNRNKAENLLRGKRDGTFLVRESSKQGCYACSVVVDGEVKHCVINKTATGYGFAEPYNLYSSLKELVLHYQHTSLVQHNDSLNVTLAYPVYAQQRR

CC(Nc1ncnc2[nH]cnc12)c1nc2cccc(Cl)c2c(=O)n1-c1ccccc1 (centres unmarked) [Compound A, 2-(1-(9H-purin-6-ylamino)ethyl)-5-chloro-3-phenylquinazolin-4(3H)-one]
EC50 (PI3K p110α): 6000 nM
EC50 [1]: 184 nM
EC50 (UACC-62): 45 nM
EC50 (BT549): 34 nM
EC50 (RXF-393): 25 nM
EC50 (LN18): 10 nM
EC50 (VCaP): 1200 nM
GI50 (PC3): 2400 nM
GI50 (LNCaP): 220 nM
GI50 (T47D): 1700 nM
GI50 (22Rv1): 2300 nM

— US20130143902A1, “COMPOSITIONS AND METHODS OF TREATING A PROLIFERATIVE DISEASE WITH A QUINAZOLINONE DERIVATIVE” (GILEAD CALISTOGA LLC, priority 2011, published 2013)
